Laboratory results taken from patent US8613929B2, “Methods and compositions for targeting agents into and across the blood-brain barrier and other endothelial cell microvascular barriers” (priority 2003, dated 2013).

Columns and labels:
[1] = test system: BCEC+ astrocyte co-cultures; settings: FIG. 2; earlier experiments (Gaillard 2000a); cited from earlier work
[2] = test system: brain cortex; experiment: In vivo brain distribution: HRP activity in brain cortex homogenate samples; parameters: species or system Guinea pigs; settings: 1.5 h after intracarotid bolus injection, 500 microgram/ml HRP equivalent in 0.5 ml saline (FIG. 18)
Protocol: Brain uptake of CRM197 or holo-transferrin (TrF) conjugated to HRP (2:1 weight/weight ratio) was determined 1.5 h after an intracarotid bolus injection of the conjugates (corresponding to a concentration of 500 microgram/ml in 0.5 ml saline of un-conjugated HRP), and compared to an equal concentration of free HRP, in young male Guinea pigs (Dunkin-Hartley HsdPoc:HD, 250-300 g). The proteins were conjugated to HRP by means of a HRP conjugation kit according to the manufacturers instructions (α Diagnostic International, San Antonio, Tex., USA). In addition, conjugated proteins were further purified on a HiPrep 16/60 column packed with Sephacryl S-200 HR matrix (Amersham Biosciences, UK). Briefly, the animals were anesthetized with isoflurane inhalation (4% induction, 1-1.5% maintenance) in an air/oxygen mixture (2:1). A cannula was placed in the carotid artery for blood sample collection and drug administration. […]
The cortex of perfused brains (and one non-perfused control brain) was dissected and weighted. […] Tissue/cells were lysed by an aqueous solution of 0.1% Na-deoxycholate (final concentration) before the HRP activity was detected in the clear supernatant of the spun-down homogenates using a standard colorimetric assay with the appropriate calibration curves and corrections for dilutions and protein content of the supernatants.

[3] = test system: brain cortex; settings: 1.5 h after intracarotid bolus injection (FIG. 19)
[4] = test system: brain; settings: guinea pig, in vivo
[5] = target: LPSS14 (DTR) (Bos taurus, UniProt E1BIN8); format: cell-based, bovine
Chain of LPSS14 (DTR) (E1BIN8 24-208 limits assumed): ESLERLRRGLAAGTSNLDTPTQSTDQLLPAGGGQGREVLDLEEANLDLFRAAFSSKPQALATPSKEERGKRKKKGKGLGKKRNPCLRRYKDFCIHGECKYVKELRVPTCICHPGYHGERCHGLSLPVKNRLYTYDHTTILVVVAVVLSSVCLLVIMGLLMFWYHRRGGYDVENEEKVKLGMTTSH

For C[C@@H]1C[C@@H]([C@H](O)CC2CC(=O)NC(=O)C2)C(=O)[C@@H](C)C1 [cycloheximide], the “recovery of BCEC+ astrocyte co-cultures from LPS” value [1] is listed as “completely inhibit the recovery phase”.
For “free HRP: un-conjugated horseradish peroxidase, a 40 kDa enzyme”, the “HRP activity in brain cortex homogenate samples (homogenate, parenchyma, capillaries)” value [2] was “below the detection limit”, the “TMB staining of cryosections of well-perfused brains” value [3] was “no visible staining” and the “staining for CRM197 by immunohistochemistry for diphtheria toxin” value [4] was “not observed”.
In the case of heparin, the “toxicity consistent with a higher concentration of DT” value ([5]; heparin 125 microgram/ml 1 h pretreatment, 100 ng/ml DT) is reported as 10 fold, the “DT toxic effect took place earlier than untreated controls” value ([5]; heparin 125 microgram/ml 1 h pretreatment, 100 ng/ml DT (FIG. 9)) is reported as “about 1 hour” and the “toxic effect after apical exposure to 100 ng/ml DT on pretreated BCEC” value ([5]; pretreatment: CRM197 5 microgram/ml 1 h, heparin 125 microgram/ml 1 h, LPS 1 microgram/ml 2 h, BB94 10 micromolar 1 h (FIG. 8-10)) is reported as “increased”.
